The target in this assay is CDK2 (UniProt P24941). In words: Enzyme Assay.
In the case of `N#Cc1cccc(Nc2nccc(-c3cnn4ncccc34)n2)c1`, the half-inhibitory concentration (IC50) was less than 100 nM. Under `Clc1ccccc1-c1ccc2c(-c3ccnc(NC4CC4)n3)cnn2n1` stands less than 1000 nM; under `Clc1ccc(Nc2nccc(-c3cnn4ncccc34)n2)cc1`, less than 100 nM; under `NS(=O)(=O)c1ccc(Nc2nccc(-c3cnn4ncccc34)n2)cc1`, less than 100 nM. Under `c1cc(Nc2nccc(-c3cnn4ncccc34)n2)cc(-c2cnco2)c1` stands less than 100 nM; under `CN1CCN(c2ccc(Nc3nccc(-c4cnn5ncccc45)n3)cc2Cl)CC1`, less than 100 nM.

On to `O=C1CCCN1CCCNc1nccc(-c2cnn3ncccc23)n1`, for which the IC50 is less than 100 nM. Take `CN(C)c1ccc(Nc2nccc(-c3cnn4nc(N5CCOCC5)ccc34)n2)cc1`: the half-inhibitory concentration (IC50) is less than 1000 nM. Under `COc1ccc2c(-c3ccnc(NC4CC4)n3)cnn2n1` stands less than 1000 nM. For `Cc1cc(Nc2nccc(-c3cnn4ncccc34)n2)ccc1N1CCN(C)CC1`, the IC50 was less than 100 nM. Regarding `O=[N+]([O-])c1cccc(Nc2nccc(-c3cnn4ncccc34)n2)c1`, the half-maximal inhibitory concentration (IC50) was less than 100 nM. Molecule `FC(F)(F)c1cccc(Nc2nccc(-c3cnn4ncccc34)n2)c1` had a concentration for half-maximal inhibition (IC50) of less than 100 nM.
